Source: US20150094321A1, “COMBINATION” (GlaxoSmithKline LLC, priority 2009, published 2015)

Key:
Assay in all cases: Cell growth inhibition assay
Format in all cases: cell-based
HCC1954 = conditions: Homo sapiens, HCC1954, HCC1954, breast, HER2+, PIK3CA H1047R; single agent; read-out: IC50 Single Agent (mean +/- std)
Description: (§1) Human breast tumor lines. BT-474, HCC1419, HCC1937, HCC1954, HCC202, KPL-1, MDA-MB-157, MDA-MB-175-VII, MDA-MB-361, MDA-MB-453, SK-BR-3, SUM225PE, UACC893, and ZR-75-1; lung tumor line, CALU-3; and melanoma line, CHL-1, were from ATCC. Human breast tumor line JIMT-1 was from European Collection of Cell Cultures (UK). Human breast tumor lines SUM149PT, SUM190PT and SUM52PE were from Asterand. These lines were cultured in RPMI 1640 medium containing 10% fetal bovine serum (FBS). A head and neck tumor line, LICR LON HN5 (HN5), a gift from the Institute of Cancer Research, Surrey, U.K, was cultured in Dulbecco's modified Eagle medium (DMEM) containing 5% FBS; KPL-4 breast tumor cell line was kindly provided by Dr Junichi Kurebayashi (Kawasaki Medical School, Okayama, Japan) and cultured in DMEM containing 5% FBS. JIMT-1 is a line derived from a patient clinically resistant to trastuzumab (Herceptin®). BT-474-J4 is a single cell clone derived from a pool of BT-474 cells that were selected to grow in lapatinib to a concentration of 3 μM.
(§2) All cells were cultured for a minimum of 72 hours prior to cell plating. Cells were assayed in a 96-well tissue culture plate (NUNC 136102) of RPMI medium containing 10% FBS for all cells at 2,000 cells per well except KPL-4 and HN5 which were plated in DMEM containing 5% FBS at 500 cells per well. Approximately 24 hours after plating, cells were exposed to ten, two-fold or three-fold serial dilutions of compound or the combination of the two agents at a constant molar to molar ratio of 1:1 Compound A to Compound B in RPMI media containing 10% FBS or DMEM containing 5% FBS. Cells were incubated in the presence of compounds for 3 days. ATP levels were determined by adding Cell Titer Glo® (Promega) according to the manufacturer's protocol. Briefly, Cell Titer Glo® was added each plate, incubated for 20 minutes then luminescent signal was read on the SpectraMax L plate reader with a 0.5 sec integration time.
(§3) Inhibition of cell growth was estimated after treatment with compound or combination of compounds for three days and comparing the signal to cells treated with vehicle (DMSO). Cell growth was calculated relative to vehicle (DMSO) treated control wells. Concentration of compound that inhibits 50% of control cell growth (IC50) was interpolated using nonlinear regression with the equation, y=(A+(B−A)/(1+(C/x)̂D))), where A is the minimum response (ymin), B is the maximum response (ymax), C is the inflection point of the curve (EC50) and D is the Hill coefficient. […]

KPL-4 = conditions: Homo sapiens, KPL4, KPL-4, breast, HER2+, PIK3CA H1047R; single agent; read-out: IC50 Single Agent (mean +/- std)
Description: as §1, §2, §3

MDA-MB-361 = conditions: Homo sapiens, MDA-MB-361, MDA-MB-361, breast, HER2+, PIK3CA E545K; single agent; read-out: IC50 Single Agent (mean +/- std)
Description: as §1, §2, §3

MDA-MB-453 = conditions: Homo sapiens, MDA-MB-453, MDA-MB-453, breast, HER2+, PIK3CA H1047R; single agent; read-out: IC50 Single Agent (mean +/- std)
Description: as §1, §2, §3

SUM190PT = conditions: Homo sapiens, breast, HER2+, PIK3CA H1047R, single agent, read-out: IC50 Single Agent (mean +/- std)
Description: as §1, §2, §3

SUM52PE = conditions: Homo sapiens, breast, FGFR2+, WT, single agent, read-out: IC50 Single Agent (mean +/- std)
Description: as §1, §2, §3

UACC893 = conditions: Homo sapiens, UACC-893, UACC893, breast, HER2+, PIK3CA H1047R; single agent; read-out: IC50 Single Agent (mean +/- std)
Description: as §1, §2, §3

ZR-75-1 = conditions: Homo sapiens, ZR-75-1, ZR-75-1, breast, PTEN L108R; single agent; read-out: IC50 Single Agent (mean +/- std)
Description: as §1, §2, §3

CHL-1 = conditions: Homo sapiens, CHL-1, CHL-1, melanoma, WT; single agent; read-out: IC50 Single Agent (mean +/- std)
Description: as §1, §2, §3

Calu-3 = conditions: Homo sapiens, Calu-3, Calu-3, lung, HER2+, WT; single agent; read-out: IC50 Single Agent (mean +/- std)
Description: as §1, §2, §3

HN5 = conditions: Homo sapiens, HN5, HN5, H&N, EGFR+, WT; single agent; read-out: IC50 Single Agent (mean +/- std)
Description: as §1, §2, §3

SUM149PT = conditions: Homo sapiens, breast, PTEN low, single agent, read-out: IC50 Single Agent (mean +/- std)
Description: as §1, §2, §3

Measured: IC50

CC(=O)Nc1cccc(-n2c(=O)n(C3CC3)c(=O)c3c(Nc4ccc(I)cc4F)n(C)c(=O)c(C)c32)c1 [Compound A, N-{3-[3-cyclopropyl-5-(2-fluoro-4-iodo-phenylamino)-6,8-dimethyl-2,4,7-trioxo-3,4,6,7-tetrahydro-2H-pyrido[4,3-d]pyrimidin-1-yl]phenyl}acetamide]
not listed: CHL-1 | Calu-3 | HN5 | SUM149PT
> 1 µM: all other assays above

Cn1ncc(Cl)c1-c1cc(C(=O)N[C@H](CN)Cc2ccc(F)c(F)c2)oc1Cl [Compound B, N-{(1S)-2-amino-1-[(3,4-difluorophenyl)methyl]ethyl}-5-chloro-4-(4-chloro-1-methyl-1H-pyrazol-5-yl)-2-furancarboxamide]
> 1 µM: CHL-1 | Calu-3 | HN5 | SUM149PT
